From patent US7923561B2 (Hoffmann-La Roche Inc., priority 2006, dated 2011) come the findings set out here.

T1 sequence (P47898 whole entry): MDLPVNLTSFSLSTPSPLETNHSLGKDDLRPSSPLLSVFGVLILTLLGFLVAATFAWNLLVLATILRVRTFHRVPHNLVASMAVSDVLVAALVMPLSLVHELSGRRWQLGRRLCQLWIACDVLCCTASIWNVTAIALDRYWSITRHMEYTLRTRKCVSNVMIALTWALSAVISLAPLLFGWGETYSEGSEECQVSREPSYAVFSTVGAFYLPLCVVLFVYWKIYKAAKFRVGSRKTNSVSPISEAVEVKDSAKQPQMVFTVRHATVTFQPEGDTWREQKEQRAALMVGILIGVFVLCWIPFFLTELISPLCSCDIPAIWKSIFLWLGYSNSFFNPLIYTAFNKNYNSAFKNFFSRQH

This assay addresses T1, recombinant human 5-HT5A receptor (Homo sapiens, UniProt P47898).
T1 construct: expressed in transfected cells; host or cells: HEK-EBNA (Human Embryonic Kidney-EBNA) cells, transient cDNA expression, membranes
The assay is described as follows: [3H]LSD radioligand binding assay, membranes of HEK-EBNA cells transiently expressing 5-HT5A receptors. The settings on record: [3H]LSD approx. 1 nM, SPA beads, 120 min at room temperature; Ki from IC50 by Cheng-Prussoff equation. The protocol: A [^3H]LSD radioligand binding assay was used to determine the affinity of the compounds for the recombinant human 5-HT5A receptor, in membranes from transiently (cDNA) expressed 5-HT5A receptors in Human Embryonic Kidney-EBNA (HEK-EBNA) cells. Assay buffer consisted of Tris (50 mM) buffer containing 1 mM EGTA, 10 mM MgCl2 (pH 7.4) and 10 μM pargyline. The binding assay was carried out in 96-well-plates in the presence of [^3H]LSD (approximately 1 nM), approximately 2 μg/well of membrane protein, and 0.5 mg of Ysi-poly-1-lysine SPA beads in a final volume of 200 μl of buffer. Non-specific binding was defined using methiothepin 2 μM. Compounds were tested at 10 concentrations. All assays were conducted in duplicate and repeated at least two times. Assay plates were incubated for 120 min at room temperature before centrifugation. Bound ligand was determined using a Packard Topcount scintillation counter. IC50 values were calculated using a non-linear curve fitting program and Ki values calculated using the Cheng-Prussoff equation.
Take `Fc1cc(F)cc(CNc2cccc3nc(NC4COc5ccccc54)ccc23)c1` (racemic) [Example 17, rac-N5-(3,5-Difluoro-benzyl)-N2-(2,3-dihydro-benzofuran-3-yl)-quinoline-2,5-diamine]: the Ki was 9.24 nM.

In the case of `c1cncc(CNc2cccc3nc(NC4COc5ccccc54)ccc23)c1` (racemic) [Example 18, rac-N2-(2,3-Dihydro-benzofuran-3-yl)-N5-pyridin-3-ylmethyl-quinoline-2,5-diamine], the Ki amounted to 22.1 nM. In the case of `COc1cccc2c1C(Nc1ccc3c(NS(=O)(=O)c4cc(F)c(F)c(F)c4)cccc3n1)CC2` (racemic) [Example 19, rac-3,4,5-Trifluoro-N-[2-(7-methoxy-indan-1-ylamino)-quinolin-5-yl]-benzenesulfonamide] it was 7.18 nM; in that of `COc1ccc2c(c1)C(Nc1ccc3c(NS(=O)(=O)c4ccc(F)cc4)cccc3n1)CC2` (racemic) [Example 21, rac-4-Fluoro-N-[2-(6-methoxy-indan-1-ylamino)-quinolin-5-yl]-benzenesulfonamide], 15.8 nM. In the case of `COc1ccc2c(c1)C(Nc1ccc3c(NCc4cccnc4)cccc3n1)CC2` (racemic) [Example 23, rac-N2-(6-Methoxy-indan-1-yl)-N5-pyridin-3-ylmethyl-quinoline-2,5-diamine] it was 23.5 nM. As to `COc1cccc2c1C(Nc1ccc3c(NS(=O)(=O)c4ccc(F)cc4)cccc3n1)CC2` (racemic) [Example 28, rac-4-Fluoro-N-[2-(7-methoxy-indan-1-ylamino)-quinolin-5-yl]-benzenesulfonamide], the Ki turned out to be 4.23 nM. The result for `COc1ccc2c(c1)C(Nc1ccc3c(NCc4cc(F)cc(F)c4)cccc3n1)CC2` (racemic) [Example 29, rac-N5-(3,5-Difluoro-benzyl)-N2-(6-methoxy-indan-1-yl)-quinoline-2,5-diamine] reads 9.72 nM; that for `COc1cccc2c1C(Nc1ccc3c(NCc4cccc5[nH]ccc45)cccc3n1)CC2` (racemic) [Example 57, rac-N5-(1H-Indol-4-ylmethyl)-N2-(7-methoxy-indan-1-yl)-quinoline-2,5-diamine], 3.7 nM. Turning to `COc1cccc2c1C(Nc1ccc3c(NS(=O)(=O)c4cc(F)cc(F)c4)cccc3n1)CCC2` (racemic) [Example 59, rac 3,5-Difluoro-N-[2-(8-methoxy-1,2,3,4-tetrahydro-naphthalen-1-ylamino)-quinolin-5-yl]-benzenesulfonamide], the Ki was 13.4 nM.

With `O=S(=O)(Nc1cccc2nc(NC3CC4CCC3C4)ccc12)c1ccc(F)cc1` (racemic) [Example 60, rac-exo-N-[2-(Bicyclo[2.2.1]hept-2-ylamino)-quinolin-5-yl]-4-fluoro-benzenesulfonamide], the Ki amounted to 197 nM.

Regarding `COc1cccc2c1C(Nc1ccc3c(NS(=O)(=O)c4cccc5c4ccn5C)cccc3n1)CC2` (racemic) [Example 61, rac-1-Methyl-1H-indole-4-sulfonic acid [2-(7-methoxy-indan-1-ylamino)-quinolin-5-yl]-amide], the Ki came to 4.66 nM.

`O=S(=O)(Nc1cccc2nc(NC3CCCc4ccccc43)ccc12)c1cc(F)cc(F)c1` (racemic) [Example 62, rac-3,5-Difluoro-N-[2-(1,2,3,4-tetrahydro-naphthalen-1-ylamino)-quinolin-5-yl]-benzenesulfonamide]: the Ki is 60.7 nM.

As for `COc1cccc2c1C(Nc1ccc3c(NCc4cnc[nH]4)cccc3n1)CCC2` (racemic) [Example 67, Rac-N5-(3H-Imidazol-4-ylmethyl)-N2-(8-methoxy-1,2,3,4-tetrahydro-naphthalen-1-yl)-quinoline-2,5-diamine], the Ki came to 10.5 nM. Take `COc1cccc2c1C(Nc1ccc3c(NCc4c[nH]nn4)cccc3n1)CCC2` (racemic) [Example 68, Rac-N2-(8-Methoxy-1,2,3,4-tetrahydro-naphthalen-1-yl)-N5-(1H-[1,2,3]triazol-4-ylmethyl)-quinoline-2,5-diamine]: the Ki was determined as 15.3 nM.

For `COc1cccc2c1C(Nc1ccc3c(NCc4cccc5[nH]ccc45)cccc3n1)CCC2` (racemic) [Example 70, Rac-N5-(1H-Indol-4-ylmethyl)-N2-(8-methoxy-1,2,3,4-tetrahydro-naphthalen-1-yl)-quinoline-2,5-diamine], the Ki turned out to be 15.9 nM.

`COc1ccc2c(c1)C(Nc1ccc3c(NS(=O)(=O)c4cc(F)c(F)c(F)c4)cccc3n1)CC2` (single isomer, unassigned; (+)) [Example 20, (+)-3,4,5-Trifluoro-N-[2-(6-methoxy-indan-1-ylamino)-quinolin-5-yl]-benzenesulfonamide]: the Ki was determined as 18.1 nM. As for `c1cncc(CNc2cccc3nc(NC4COc5ccccc54)ccc23)c1` (single isomer, unassigned; (+)) [Example 27, (+)-N2-2,3-Dihydro-benzofuran-3-yl-N5-pyridin-3-ylmethyl-quinoline-2,5-diamine], the Ki was found to be 25.8 nM. With `COc1ccc2c(c1)C(Nc1ccc3c(NCc4cccc(S(C)(=O)=O)c4)cccc3n1)CC2` (single isomer, unassigned; (+)) [Example 30, (+)-N5-(3-Methanesulfonyl-benzyl)-N2-(6-methoxy-indan-1-yl)-quinoline-2,5-diamine], the Ki was found to be 19 nM. In the case of `Fc1cc(F)cc(CNc2cccc3nc(NC4COc5ccccc54)ccc23)c1` (single isomer, unassigned; (+)) [Example 32, (+)-N5-(3,5-Difluoro-benzyl)-2,3-dihydro-benzofuran-3-yl-quinoline-2,5-diamine] it was 12.7 nM. The result for `COc1ccc2c(c1)C(Nc1ccc3c(NS(=O)(=O)c4ccc(F)cc4)cccc3n1)CC2` (single isomer, unassigned; (+)) [Example 33, (+)-4-Fluoro-N-[2-(6-methoxy-indan-1-ylamino)-quinolin-5-yl]-benzenesulfonamide] reads 12 nM; that for `COc1ccc2c(c1)C(Nc1ccc3c(NCc4cc(F)cc(F)c4)cccc3n1)CC2` (single isomer, unassigned; (+)) [Example 35, (+)-N5-(3,5-Difluoro-benzyl)-N2-(6-methoxy-indan-1-yl)-quinoline-2,5-diamine], 7.81 nM; that for `COc1ccc2c(c1)C(Nc1ccc3c(NCc4cccnc4)cccc3n1)CC2` (single isomer, unassigned; (+)) [Example 37, (+)-N2-(6-Methoxy-indan-1-yl)-N5-pyridin-3-ylmethyl-quinoline-2,5-diamine], 17.8 nM.

Turning to `O=S(=O)(Nc1cccc2nc(NC3COc4ccccc43)ccc12)c1cc(F)cc(F)c1` (single isomer, unassigned; (+)) [Example 41, (+)-N-{2-[(2,3-Dihydro-benzofuran-3-yl)amino]-quinolin-5-yl}-3,5-difluoro-benzenesulfonamide], the Ki was 22.9 nM. As to `O=S(=O)(Nc1cccc2nc(N[C@@H]3CCc4ccccc43)ccc12)c1ccc(F)cc1` [Example 1, 4-Fluoro-N-[2-((R)-indan-1-ylamino)-quinolin-5-yl]-benzenesulfonamide], the Ki was determined as 3.76 nM. Consider `c1cncc(COc2cccc3nc(N[C@@H]4CCc5ccccc54)ccc23)c1` [Example 4, (R)-Indan-1-yl-[5-(pyridin-3-ylmethoxy)-quinolin-2-yl]-amine], for which the Ki turned out to be 37.3 nM. The result for `O=S(=O)(Nc1cccc2nc(N[C@@H]3CCc4ccccc43)ccc12)c1ccc(Cl)s1` [Example 5, 5-Chloro-thiophene-2-sulfonic acid [2-((R)-indan-1-ylamino)-quinolin-5-yl]-amide] reads 3.62 nM; that for `Fc1cc(F)cc(CNc2cccc3nc(N[C@@H]4CCc5ccccc54)ccc23)c1` [Example 6, N5-(3,5-Difluoro-benzyl)-N2-(R)-indan-1-yl-quinoline-2,5-diamine], 1.85 nM. With `Clc1ccc(Nc2cccc3nc(N[C@@H]4CCc5ccccc54)ccc23)cc1` [Example 7, N5-(4-Chloro-phenyl)-N2-(R)-indan-1-yl-quinoline-2,5-diamine], the Ki was 2.84 nM. The result for `CN(c1cccc2nc(N[C@@H]3CCc4ccccc43)ccc12)S(=O)(=O)c1ccc(F)cc1` [Example 8, 4-Fluoro-N-[2-((R)-indan-1-ylamino)-quinolin-5-yl]-N-methyl-benzenesulfonamide] reads 13.5 nM; that for `Fc1ccc(Oc2cccc3nc(N[C@@H]4CCc5ccccc54)ccc23)cc1` [Example 9, [5-(4-Fluoro-phenoxy)-quinolin-2-yl]-(R)-indan-1-yl-amine], 90.9 nM; that for `O=S(=O)(Nc1cccc2nc(N[C@@H]3CCc4ccccc43)ccc12)c1cc(F)cc(F)c1` [Example 11, 3,5-Difluoro-N-[2-((R)-indan-1-ylamino)-quinolin-5-yl]-benzenesulfonamide], 5.86 nM.

Take `c1cncc(CNc2cccc3nc(N[C@@H]4CCc5ccccc54)ccc23)c1` [Example 12, N2-(R)-Indan-1-yl-N5-pyridin-3-ylmethyl-quinoline-2,5-diamine]: the Ki amounted to 5.13 nM. The result for `O=S(=O)(Nc1cccc2nc(N[C@@H]3CCc4ccccc43)ccc12)c1cc(F)c(F)c(F)c1` [Example 16, 3,4,5-Trifluoro-N-[2-((R)-indan-1-ylamino)-quinolin-5-yl]-benzenesulfonamide] reads 11.1 nM; that for `COc1cccc2c1C(Nc1ccc3c(NS(=O)(=O)c4cc(F)cc(F)c4)cccc3n1)CC2` (stereo not shown) [Example 39, 3,5-Difluoro-N-[2-(7-methoxy-indan-1-ylamino)-quinolin-5-yl]-benzenesulfonamide], 4.57 nM.

By Ki is commonly meant a measure of affinity in units of concentration, obtained from inhibition or displacement.
